According to article PMC6364417, “Kinase inhibitor library screening identifies synergistic drug combinations effective in sensitive and resistant melanoma cells” (Journal of Experimental & Clinical Cancer Research : CR, 2019):

Assays:
Assay in all cases: Kinase inhibitor library screening, PrestoBlue cell viability, 1 or 10 μM, 72 h
[1] = tested on: IGR37-XP cells (Vemurafenib-resistant); details: for viability at 1 µM / viability at 10 µM: Homo sapiens, IGR-37, 72 h; for viability at 1 µM: read-out: cell viability, IGR37 XP, 1μΜ; for viability at 10 µM: read-out: cell viability, IGR37 XP, 10μΜ
Procedure: (§1) After 72 h of treatment, cell viability was assessed using the PrestoBlue Cell Viability Reagent (ThermoFisher Scientific). Measurements were performed with the CLARIOstar Monochromator microplate reader (BMG Labtech).
(§2) Kinase inhibitor library screening. […] Each cell line was treated in its sensitive form (parental), and also as 2 resistant derivatives, which were made resistant to either Vemurafenib (XP) or Dabrafenib (GP). Drugs were added at 2 different concentrations, 1 and 10 μM, for 72 h and cell viability was assessed using the PrestoBlue Cell Viability assay. Results are depicted as % viability compared to untreated cells. Each cell line was analyzed at least in duplicate. […] (XLSX 95 kb)

[2] = tested on: IGR37-GP cells (Dabrafenib-resistant); details: for viability at 1 µM / viability at 10 µM: Homo sapiens, IGR-37, 72 h; for viability at 1 µM: read-out: cell viability, IGR37 GP, 1μΜ; for viability at 10 µM: read-out: cell viability, IGR37 GP, 10μΜ
Procedure: as §1, §2

[3] = tested on: 501Mel cells (parental); details: 72 h; for viability at 1 µM / viability at 10 µM: Homo sapiens; for viability at 1 µM: read-out: cell viability, 501Mel Parental, 1μΜ; for viability at 10 µM: read-out: cell viability, 501Mel Parental, 10μΜ
Procedure: as §1, §2

[4] = tested on: 501Mel-GP cells (Dabrafenib-resistant); details: 72 h; for viability at 1 µM / viability at 10 µM: Homo sapiens; for viability at 1 µM: read-out: cell viability, 501Mel GP, 1μΜ; for viability at 10 µM: read-out: cell viability, 501Mel GP, 10μΜ
Procedure: as §1, §2

[5] = tested on: IGR37 cells (parental); details: for viability at 1 µM / viability at 10 µM: Homo sapiens, IGR-37, 72 h; for viability at 1 µM: read-out: cell viability, IGR37 Parental, 1μΜ; for viability at 10 µM: read-out: cell viability, IGR37 Parental, 10μΜ
Procedure: as §1, §2

[6] = tested on: A375-GP cells (Dabrafenib-resistant); details: for viability at 1 µM / viability at 10 µM: Homo sapiens, A-375, 72 h; for viability at 1 µM: read-out: cell viability, A375 GP, 1μΜ; for viability at 10 µM: read-out: cell viability, A375 GP, 10μΜ
Procedure: as §1, §2

[7] = tested on: A375-XP cells (Vemurafenib-resistant); details: for viability at 1 µM / viability at 10 µM: Homo sapiens, A-375, 72 h; for viability at 1 µM: read-out: cell viability, A375 XP, 1μΜ; for viability at 10 µM: read-out: cell viability, A375 XP, 10μΜ
Procedure: as §1, §2

[8] = tested on: A375 cells (parental); details: for viability at 1 µM / viability at 10 µM: Homo sapiens, A-375, 72 h; for viability at 1 µM: read-out: cell viability, A375 Parental, 1μΜ; for viability at 10 µM: read-out: cell viability, A375 Parental, 10μΜ
Procedure: as §1, §2

[9] = tested on: 501Mel-XP cells (Vemurafenib-resistant); details: 72 h; for viability at 1 µM / viability at 10 µM: Homo sapiens; for viability at 1 µM: read-out: cell viability, 501Mel XP, 1μΜ; for viability at 10 µM: read-out: cell viability, 501Mel XP, 10μΜ
Procedure: as §1, §2

Compound | viability at 1 µM [1] [%] | viability at 10 µM [1] [%] | viability at 1 µM [2] [%] | viability at 10 µM [2] [%] | viability at 1 µM [3] [%] | viability at 10 µM [3] [%] | viability at 1 µM [4] [%] | viability at 10 µM [4] [%] | viability at 1 µM [5] [%] | viability at 10 µM [5] [%] | viability at 1 µM [6] [%] | viability at 10 µM [6] [%] | viability at 1 µM [7] [%] | viability at 10 µM [7] [%] | viability at 1 µM [8] [%] | viability at 10 µM [8] [%] | viability at 1 µM [9] [%] | viability at 10 µM [9] [%] | also measured
Cc1[nH]c(/C=C2\C(=O)Nc3ccc(S(=O)(=O)N(C)c4cccc(Cl)c4)cc32)c(C)c1C(=O)N1CCN(C)CC1 [SU11274] |  |  |  |  |  |  |  |  |  |  |  |  |  |  |  |  |  |  | cell viability (kinase inhibitor library screening) ([1]; IGR37 XP, 1μΜ, 72 h): 105.9%; cell viability (kinase inhibitor library screening) ([1]; IGR37 XP, 10μΜ, 72 h): 19.7%; cell viability (kinase inhibitor library screening) ([2]; IGR37 GP, 1μΜ, 72 h): 103.1%; cell viability (kinase inhibitor library screening) ([2]; IGR37 GP, 10μΜ, 72 h): 37.8%; cell viability (kinase inhibitor library screening) ([3]; 501Mel Parental, 1μΜ): 107.1%; cell viability (kinase inhibitor library screening) ([3]; 501Mel Parental, 10μΜ): 12.1%; cell viability (kinase inhibitor library screening) ([4]; 501Mel GP, 1μΜ): 111.1%; cell viability (kinase inhibitor library screening) ([4]; 501Mel GP, 10μΜ): 33.6%; cell viability (kinase inhibitor library screening) ([5]; IGR37 Parental, 1μΜ, 72 h): 117.2%; cell viability (kinase inhibitor library screening) ([5]; IGR37 Parental, 10μΜ, 72 h): 13.1%; cell viability (kinase inhibitor library screening) ([6]; A375 GP, 1μΜ, 72 h): 104.3%; cell viability (kinase inhibitor library screening) ([6]; A375 GP, 10μΜ, 72 h): 46.3%; cell viability (kinase inhibitor library screening) ([7]; A375 XP, 1μΜ, 72 h): 111.1%; cell viability (kinase inhibitor library screening) ([7]; A375 XP, 10μΜ, 72 h): 22.4%; cell viability (kinase inhibitor library screening) ([8]; A375 Parental, 10μΜ, 72 h): 65.8%; cell viability (kinase inhibitor library screening) ([8]; A375 Parental, 1μΜ, 72 h): 112.5%; cell viability (kinase inhibitor library screening) ([9]; 501Mel XP, 1μΜ): 92.2%; cell viability (kinase inhibitor library screening) ([9]; 501Mel XP, 10μΜ): 0.0577%
N#CCNC(=O)c1ccc(-c2ccnc(Nc3ccc(N4CCOCC4)cc3)n2)cc1 [Cyt387] | 106 | 11.7 | 94.2 | 25.5 | 101 | 60.8 | 105 | 50.6 | 103 | 86.1 | 94.4 | 43.9 | 95.8 | 64.7 | 99.6 | 48.4 | 115 | 35.8 | 
COCCOc1ccc2c(c1)ncn2-c1ccc2cccc(N3CCC(N)CC3)c2n1 [CP 673451] |  |  |  |  |  |  |  |  |  |  |  |  |  |  |  |  |  |  | Cell viability in kinase inhibitor library screening, IGR37 XP, 10μΜ ([1]; IGR37 XP, 10μΜ, 72 h): 31.6%; Cell viability in kinase inhibitor library screening, IGR37 XP, 1μΜ ([1]; IGR37 XP, 1μΜ, 72 h, in %): 105.2; Cell viability in kinase inhibitor library screening, IGR37 GP, 10μΜ ([2]; IGR37 GP, 10μΜ, 72 h): 88.6%; Cell viability in kinase inhibitor library screening, IGR37 GP, 1μΜ ([2]; IGR37 GP, 1μΜ, 72 h, in %): 99.0; Cell viability in kinase inhibitor library screening, 501Mel Parental, 10μΜ ([3]; 501Mel Parental, 10μΜ, in %): 90.0; Cell viability in kinase inhibitor library screening, 501Mel GP, 1μΜ ([4]; 501Mel GP, 1μΜ, in %): 117.9; Cell viability in kinase inhibitor library screening, 501Mel GP, 10μΜ ([4]; 501Mel GP, 10μΜ, in %): 96.1; Cell viability in kinase inhibitor library screening, IGR37 Parental, 10μΜ ([5]; IGR37 Parental, 10μΜ, 72 h, in %): 105.1; Cell viability in kinase inhibitor library screening, A375 GP, 1μΜ ([6]; A375 GP, 1μΜ, 72 h): 105.4; Cell viability in kinase inhibitor library screening, A375 GP, 10μΜ ([6]; A375 GP, 10μΜ, 72 h): 64.4; Cell viability in kinase inhibitor library screening, A375 XP, 1μΜ ([7]; A375 XP, 1μΜ, 72 h): 109.7; Cell viability in kinase inhibitor library screening, A375 XP, 10μΜ ([7]; A375 XP, 10μΜ, 72 h): 76.9; Cell viability in kinase inhibitor library screening, A375 Parental, 10μΜ ([8]; A375 Parental, 10μΜ, 72 h): 71.9; Cell viability in kinase inhibitor library screening, A375 Parental, 1μΜ ([8]; A375 Parental, 1μΜ, 72 h): 104.8; Cell viability in kinase inhibitor library screening, 501Mel XP, 1μΜ ([9]; 501Mel XP, 1μΜ, in %): 107.1; Cell viability in kinase inhibitor library screening, 501Mel XP, 10μΜ ([9]; 501Mel XP, 10μΜ, in %): 62.2
Oc1cccc(-c2nc(N3CCOCC3)c3oc4ncccc4c3n2)c1 [PI-103] | 80.5 | 0.328 | 87.6 | 3.8 | 36.3 | 1.1 | 20 | 3.4 | 76.3 | 10.6 | 55.6 | 20.2 | 49.4 | 20.8 | 61.4 | 24.2 | 13.4 | -0.0754 | 
